The text below walks through data of patent US20230138851A1, “NOVEL ALKYNE DERIVATIVES” (CARNA BIOSCIENCES, INC., priority 2020, published 2023).

Holding throughout (type): biochemical
The target of one experiment is T1, DYRK1A (Homo sapiens, UniProt Q13627).
T1 construct: purchased Carna Biosciences, Inc. 04-130
As to the kind of experiment: Inhibition test on activity of DYRK family, mobility shift assay (MSA), DYRK1A. The conditions noted are these: ATP 100 μM, FITC-labeled DYRKtide peptide substrate, room temperature 1 hour; for IC50: read-out: Inhibitory Activity 1a (IC50 against DYRK1A). A digest of the protocol:
(§1)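 FITC-DYRKtide phosphorylation in 20 mM HEPES pH 7.5 with MgCl2; ATP in the substrate mix was 100 μM (DYRK1A), 200 μM (DYRK1B), 40 μM (DYRK2) or 20 μM (DYRK3). Reactions ran 1 h at room temperature; inhibition from P/(P+S) versus blank and DMSO control, IC50 by regression on log concentration.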

The target in another experiment is T2, DYRK1B (Homo sapiens, UniProt Q9Y463).
T2 construct: purchased Carna Biosciences, Inc. 04-131
T2 sequence (Q9Y463 whole entry): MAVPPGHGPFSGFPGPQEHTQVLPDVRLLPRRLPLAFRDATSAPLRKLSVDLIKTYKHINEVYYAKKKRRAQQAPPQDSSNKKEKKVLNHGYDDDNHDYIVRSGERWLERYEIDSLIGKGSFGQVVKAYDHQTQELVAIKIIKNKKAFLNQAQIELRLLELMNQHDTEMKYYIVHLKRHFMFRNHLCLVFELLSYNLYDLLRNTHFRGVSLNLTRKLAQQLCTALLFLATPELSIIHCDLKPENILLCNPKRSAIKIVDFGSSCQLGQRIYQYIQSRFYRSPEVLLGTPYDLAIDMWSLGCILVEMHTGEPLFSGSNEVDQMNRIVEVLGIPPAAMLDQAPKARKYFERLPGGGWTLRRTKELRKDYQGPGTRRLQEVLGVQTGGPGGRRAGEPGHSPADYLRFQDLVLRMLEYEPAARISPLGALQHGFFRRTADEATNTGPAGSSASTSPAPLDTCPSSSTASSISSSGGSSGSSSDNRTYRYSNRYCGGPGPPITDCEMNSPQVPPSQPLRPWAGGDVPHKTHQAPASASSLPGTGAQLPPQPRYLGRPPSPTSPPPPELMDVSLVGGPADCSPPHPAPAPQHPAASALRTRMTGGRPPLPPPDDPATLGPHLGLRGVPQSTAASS
As to the kind of experiment: Inhibition test on activity of DYRK family, mobility shift assay (MSA), DYRK1B. To be noted: ATP 200 μM, FITC-labeled DYRKtide peptide substrate, room temperature 1 hour; for IC50: read-out: Inhibitory Activity 1b (IC50 against DYRK1B). The arrangement: Inhibitory Activity 1b (IC50 against DYRK1B): scale not given here. How it is done:
[Inhibition Test on Activity of DYRK Family (DYRK1A, DYRK1B, DYRK2, and […])]
(Method for Measuring Kinase Activity)
The kinase activity was measured by mobility shift assay (MSA) method using QuickScout Screening Assist™ MSA (commercially available kit manufactured by Carna Biosciences, Inc.). The substrate of the kinase reaction used was an FITC-labeled DYRKtide peptide included in the kit. An assay buffer [20 mM HEPES, 0.01% Triton X-100™, 2 mM dithiothreitol, pH 7.5] was used to create a substrate mixture solution with a substrate (4 μM), MgCl2 (20 mM), and ATP (DYRK1A: 100 μM; DYRK1B: 200 μM; DYRK2: 40 μM; and DYRK3: 20 μM). In addition, kinases (DYRK1A: manufactured by Carna Biosciences, Inc., Cat. No. 04-130; DYRK1B: manufactured by Carna Biosciences, Inc., Cat. No. 04-131; DYRK2; manufactured by Carna Biosciences, Inc., Cat. No. 04-132; and DYRK3; manufactured by Carna Biosciences, Inc., Cat. No. 04-133) were diluted with the assay buffer to prepare enzyme solutions (DYRK1A: 0.2 ng/μL; DYRK1B: 0.08 ng/μL; DYRK2: 0.04 ng/μL; and DYRK3: 0.25 ng/μL). The 10 mM solution of the test compound in DMSO was further diluted with DMSO to 10 levels of the concentration (0.00003 mM, 0.0001 mM, 0.0003 mM, 0.001 mM, 0.003 mM, 0.01 mM, 0.03 mM, 0.1 mM, 0.3 mM, and 1 mM), each of which was subjected to 25-fold dilution with the assay buffer to obtain a drug solution (4% DMSO solution). 5 μL of the drug solution or a control solution (4% DMSO-assay buffer), 5 μL of the substrate mixture solution, and 10 μL of the enzyme solution were mixed in the wells of a polypropylene 384-well plate and allowed to react at room temperature for 1 hour, and then the reaction was quenched by adding 60 μL of the termination buffer included in the kit. Subsequently, the quantities of the substrates (S) and the phosphorylated substrate (P) in the reaction solution were measured using LabChip EZ Reader II system (manufactured by Caliper Life Sciences) according to the protocol of the assay kit.
(Method for Evaluating Inhibitory Activity)
The heights of the peaks of the “substrate” and the “phosphorylated substrate” were expressed as S and P, respectively, and a blank containing the assay buffer instead of the enzyme solution was also measured.
The inhibition rate (%) of the test compound was calculated according to the following equation:
Inhibition rate (%)=(1−(C−A)/(B−A))×100
wherein, A, B, and C represent P/(P+S) of the blank well, P/(P+S) of the control solution well, and P/(P+S) of the compound-containing well, respectively.
The IC50 value was calculated via a regression analysis of the inhibition rate and the test compound concentration (logarithmic value).
The inhibiting activities of representative compounds of the present invention are shown against DYRK1A, DYRK1B, DYRK2, and DYRK3 in Tables 7 and 8. The kinase activity inhibitory effect was indicated with the mark *** at an IC50 value of less than 0.01 μM; the mark ** at 0.01 μM or more and less than 0.1 μM; the mark * at 0.1 μM or more and less than 1 μM; and the mark — at 1 μM or more (N.D. indicates not measured).

The target of a further experiment is T3, DYRK3 (Homo sapiens, UniProt O43781).
T3 construct: purchased Carna Biosciences, Inc. 04-133
T3 sequence (O43781 1-588): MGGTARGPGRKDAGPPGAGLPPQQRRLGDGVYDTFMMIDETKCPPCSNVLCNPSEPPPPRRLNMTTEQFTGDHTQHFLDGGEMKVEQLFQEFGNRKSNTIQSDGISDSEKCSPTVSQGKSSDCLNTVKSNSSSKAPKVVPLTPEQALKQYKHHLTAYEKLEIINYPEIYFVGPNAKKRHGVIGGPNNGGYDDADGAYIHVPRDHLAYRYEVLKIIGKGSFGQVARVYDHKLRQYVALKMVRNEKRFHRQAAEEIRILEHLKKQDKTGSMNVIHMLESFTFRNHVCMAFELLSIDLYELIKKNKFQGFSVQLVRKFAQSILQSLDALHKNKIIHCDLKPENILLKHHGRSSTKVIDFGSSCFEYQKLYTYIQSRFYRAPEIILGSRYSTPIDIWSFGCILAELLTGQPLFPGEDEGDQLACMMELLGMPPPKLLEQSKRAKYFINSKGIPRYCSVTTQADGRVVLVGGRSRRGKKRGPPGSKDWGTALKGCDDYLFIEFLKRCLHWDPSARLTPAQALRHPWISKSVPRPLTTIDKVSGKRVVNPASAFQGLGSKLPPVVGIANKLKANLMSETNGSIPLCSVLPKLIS
As to the kind of experiment: Inhibition test on activity of DYRK family, mobility shift assay (MSA), DYRK3. The conditions noted are these: ATP 20 μM, FITC-labeled DYRKtide peptide substrate, room temperature 1 hour; for IC50: read-out: Inhibitory Activity 3 (IC50 against DYRK3). The gist of the method: as §1

The next experiment deals with T4, DYRK2 (Homo sapiens, UniProt Q92630).
T4 construct: purchased Carna Biosciences, Inc. 04-132
T4 sequence (Q92630 1-601): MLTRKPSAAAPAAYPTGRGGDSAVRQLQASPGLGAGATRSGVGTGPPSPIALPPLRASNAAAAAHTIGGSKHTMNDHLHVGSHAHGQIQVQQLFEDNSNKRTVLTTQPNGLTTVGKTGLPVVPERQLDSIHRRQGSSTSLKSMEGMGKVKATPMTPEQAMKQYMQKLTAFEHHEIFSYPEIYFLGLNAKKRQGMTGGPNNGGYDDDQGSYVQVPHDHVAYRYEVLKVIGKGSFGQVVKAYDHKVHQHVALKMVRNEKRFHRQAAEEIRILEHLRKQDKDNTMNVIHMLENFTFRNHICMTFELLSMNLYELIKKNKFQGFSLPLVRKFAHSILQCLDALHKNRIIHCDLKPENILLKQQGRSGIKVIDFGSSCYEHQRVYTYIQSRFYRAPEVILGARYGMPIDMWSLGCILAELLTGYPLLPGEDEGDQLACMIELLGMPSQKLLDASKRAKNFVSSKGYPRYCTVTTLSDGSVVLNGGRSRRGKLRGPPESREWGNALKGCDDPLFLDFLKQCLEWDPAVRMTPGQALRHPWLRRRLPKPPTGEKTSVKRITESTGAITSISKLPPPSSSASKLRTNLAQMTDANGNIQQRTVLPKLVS
As to the kind of experiment: Inhibition test on activity of DYRK family, mobility shift assay (MSA), DYRK2. To be noted: ATP 40 μM, FITC-labeled DYRKtide peptide substrate, room temperature 1 hour; for IC50: read-out: Inhibitory Activity 2 (IC50 against DYRK2). A digest of the protocol: as §1

Turning to `CC#CC1CNC(=O)N1c1nc2c(ccc3ncn(C)c32)s1` (racemic) [Example 26, (RS)-1-(8-methyl-8H-imidazo[4′,5′:5,6]benz[1,2-d]thiazol-2-yl)-5-(prop-1-yn-1-yl)imidazolidin-2-one], on DYRK1A, the “Inhibitory Activity 1a (IC50 against DYRK1A)” value (from here on “Inhibitory Activity 1a”) was “* * *”. In addition, the “Inhibitory Activity 1b (IC50 against DYRK1B)” value (“Inhibitory Activity 1b” below) on DYRK1B is reported as “* * *”. The “Inhibitory Activity 3 (IC50 against DYRK3)” value at DYRK3 was “* *”. The IC50 (commonly the concentration that gives 50% inhibition) on DYRK2 fell in the range of 100 to 1000 nM.
In the case of `CC#CC1CNC(=O)N1c1nc2c(ccc3ncccc32)s1` (racemic) [Example 27, (RS)-5-(prop-1-yn-1-yl)-1-(thiazolo[4,5-f]quinolin-2-yl)imidazolidin-2-one], the “Inhibitory Activity 1a” value on DYRK1A is “* **”. Besides, the “Inhibitory Activity 1b” value on DYRK1B is “* * *”. Further, on DYRK3, the “Inhibitory Activity 3 (IC50 against DYRK3)” value is listed as “* *”. Further, on DYRK2, the IC50 lay within 100 to 1000 nM.
For `CC#CC1CNC(=O)N1c1nc2c(ccc3nnn(C)c32)s1` (racemic) [Example 28, (RS)-1-(1-methyl-1H-thiazolo[4′,5′:3,4]benz[1,2-d][1,2,3]triazol-7-yl)-5-(prop-1-yn-1-yl)imidazolidin-2-one], on DYRK1A, the “Inhibitory Activity 1a” value is recorded as “* * *”. Further, the “Inhibitory Activity 1b” value at DYRK1B is reported as “* * *”. In addition, the values for the IC50 on DYRK3 and on DYRK2 were 100 to 1000 nM and not below 1000 nM, respectively.
As to `CC#CC1CNC(=O)N1c1nc2c(ccc3ncn(CCO)c32)s1` (racemic) [Example 31, (RS)-1-[8-(2-hydroxyethyl)-8H-imidazo[4′,5′:5,6]benz[1,2-d]thiazol-2-yl]-5-(prop-1-yn-1-yl)imidazolidin-2-one], the “Inhibitory Activity 1a” value on DYRK1A was “* * *”. Also, the “Inhibitory Activity 1b” value at DYRK1B is given as “* * *”. The IC50 on DYRK3 and at DYRK2 was 100 to 1000 nM throughout.
Consider `CC#CC1CNC(=O)N1c1nc2c(ccc3ncn(C4CCOCC4)c32)s1` (racemic) [Example 32, (RS)-5-(prop-1-yn-1-yl)-1-[8-(tetrahydro-2H-pyran-4-yl)-8H-imidazo[4′,5′:5,6]benz [1,2-d]thiazol-2-yl]imidazolidin-2-one], for which, at DYRK1A, the “Inhibitory Activity 1a” value is “* * *”. For the same compound, at DYRK1B, the “Inhibitory Activity 1b” value is “* * *”. In addition, at DYRK3, the “Inhibitory Activity 3 (IC50 against DYRK3)” value was “* *”. In addition, at DYRK2, the “Inhibitory Activity 2 (IC50 against DYRK2)” value is listed as “* *”.
Regarding `CC#CC1CNC(=O)N1c1nc2c(ccc3ncn(CCOC)c32)s1` (racemic) [Example 33, (RS)-1-[8-(2-methoxyethyl)-8H-imidazo[4′,5′:5,6]benz[1,2-d]thiazol-2-yl]-5-(prop-1-yn-1-yl)imidazolidin-2-one], the “Inhibitory Activity 1a” value on DYRK1A is given as “* *”. On DYRK1B, the “Inhibitory Activity 1b” value was “* *”. The IC50 on DYRK3 and on DYRK2 was 100 to 1000 nM in each case.
`CC#CC1CNC(=O)N1c1nc2c3c(ccc2s1)OCCN3` (racemic) [Example 38, (RS)-1-(8,9-dihydro-7H-thiazolo[4′,5′:3,4]benz[1,2-b][1,4]oxazin-2-yl)-5-(prop-1-yn-1-yl)imidazolidin-2-one]: the “Inhibitory Activity 1a” value at DYRK1A is “* * *”. Besides, at DYRK1B, the “Inhibitory Activity 1b” value is “* * *”. Further, the 50% inhibitory concentration (IC50) on DYRK3 and on DYRK2 was 100 to 1000 nM throughout.
Turning to `CC#CC1CNC(=O)N1c1nc2c3c(ccc2s1)OCCN3C(C)=O` (racemic) [Example 39, (RS)-1-(9-acetyl-8,9-dihydro-7H-thiazolo[4′,5′:3,4]benz[1,2-b][1,4]oxazin-2-yl)-5-(prop-1-yn-1-yl)imidazolidin-2-one], the half-maximal inhibitory concentration (IC50) at DYRK1A is 100 to 1000 nM; on DYRK1B, not below 1000 nM; at DYRK3, not below 1000 nM; on DYRK2, not below 1000 nM.
Regarding `CC#CC1CNC(=O)N1c1nc2c(ccc3nnn(C)c32)s1` (single isomer, unassigned) [Example 29, 1-(1-methyl-1H-thiazolo[4′,5′:3,4]benz[1,2-d][1,2,3]triazol-7-yl)-5-(prop-1-yn-1-yl)imidazolidin-2-one], the half-inhibitory concentration (IC50) is 100 to 1000 nM on DYRK1A, 100 to 1000 nM on DYRK1B, not below 1000 nM at DYRK3 and not below 1000 nM on DYRK2.
As for `CC#CC1CNC(=O)N1c1nc2c(ccc3nnn(C)c32)s1` (single isomer, unassigned) [Example 30, 1-(1-methyl-1H-thiazolo[4′,5′:3,4]benz[1,2-d][1,2,3]triazol-7-yl)-5-(prop-1-yn-1-yl)imidazolidin-2-one], the “Inhibitory Activity 1a” value on DYRK1A was “* * *”. Further, the “Inhibitory Activity 1b” value at DYRK1B is on record as “* * *”. Further, the IC50 on DYRK3 and at DYRK2 was 100 to 1000 nM throughout.
